ChEMBL document CHEMBL1201862, “PubChem BioAssay data set” (2004)
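Values below derive from 48-hour exposures of cells grown in 96-well plates, with endpoints linearly interpolated between the two concentrations bracketing the appropriate inhibition level. The concentration for 50% growth inhibition is given as GI50.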 Calls of active or inactive are those of the source. Cut-off read from the data, not from the text of the source: active = GI50 up to about 1.1 µM and inactive = higher.

Legend:
Test in all cases: inhibition of tumour cell growth, NCI panel, 48 h
NCI-H226 = system: NCI-H226
HCC 2998 = system: HCC 2998
SW-620 = system: SW-620
HOP-62 = system: HOP-62
SK-MEL-2 = system: SK-MEL-2
OVCAR-5 = system: OVCAR-5
OVCAR-8 = system: OVCAR-8
KM12 = system: KM12
OVCAR-4 = system: OVCAR-4
SF-539 = system: SF-539
SK-MEL-5 = system: SK-MEL-5
CCRF-CEM = system: CCRF-CEM
M14 = system: M14
786-0 = system: 786-0
HL-60 = system: HL-60

Row | SMILES | GI50 (NCI-H226) | GI50 (HCC 2998) | GI50 (SW-620) | GI50 (HOP-62) | GI50 (SK-MEL-2) | GI50 (OVCAR-5) | GI50 (OVCAR-8) | GI50 (KM12) | GI50 (OVCAR-4) | GI50 (SF-539) | GI50 (SK-MEL-5) | GI50 (CCRF-CEM) | GI50 (M14) | GI50 (786-0) | GI50 (HL-60)
1 | NS(=O)(=O)c1ccc(NC(=O)COC(=O)c2cccc3c(=O)c4ccccc4[nH]c23)cc1 | 19.6 µM (inactive) | 39.4 µM (inactive) | 52.7 µM (inactive) | 18.5 µM (inactive) | 19.5 µM (inactive) | > 56.5 µM (inactive) | 20.7 µM (inactive) | 31.6 µM (inactive) | 25.5 µM (inactive) | 16.3 µM (inactive) | > 83.4 µM (inactive) | 38.5 µM (inactive) | 61.4 µM (inactive) | 19.2 µM (inactive) | > 100 µM (inactive)
2 | C[P+]1(Cc2ccccc2)CCCC1 | > 100 µM (inactive) | 71.1 µM (inactive) | > 100 µM (inactive) | > 100 µM (inactive) | > 100 µM (inactive) | > 100 µM (inactive) | > 100 µM (inactive) | > 100 µM (inactive) | – | > 100 µM (inactive) | > 100 µM (inactive) | > 100 µM (inactive) | > 100 µM (inactive) | > 100 µM (inactive) | > 100 µM (inactive)
3 | Nc1nc(-c2ccccc2)cc(-c2cc(Cl)ccc2O)n1 | > 100 µM (inactive) | > 100 µM (inactive) | > 100 µM (inactive) | 29.1 µM (inactive) | – | > 100 µM (inactive) | 32.9 µM (inactive) | 50.9 µM (inactive) | 63.8 µM (inactive) | 31.6 µM (inactive) | – | > 100 µM (inactive) | > 100 µM (inactive) | 55 µM (inactive) | > 100 µM (inactive)
4 | COc1cc(OC)cc(C(=O)Cc2c(C(=O)c3ccccc3)c3ccccc3n2C(=O)c2ccccc2)c1 | 31.1 µM (inactive) | 43.4 µM (inactive) | 37.5 µM (inactive) | 93.5 µM (inactive) | 20.5 µM (inactive) | > 100 µM (inactive) | 16.9 µM (inactive) | 33.7 µM (inactive) | 15.3 µM (inactive) | 30.2 µM (inactive) | 13.1 µM (inactive) | 16 µM (inactive) | 32.2 µM (inactive) | 38.9 µM (inactive) | 34.5 µM (inactive)
5 | O=C1C2=C(c3ccccc31)C(c1cccc(Cl)c1)NC(S)=N2 (configuration not stated) | 44.2 µM (inactive) | > 100 µM (inactive) | > 100 µM (inactive) | > 100 µM (inactive) | > 100 µM (inactive) | > 100 µM (inactive) | 96.4 µM (inactive) | 45.9 µM (inactive) | 76.7 µM (inactive) | > 100 µM (inactive) | 55.1 µM (inactive) | > 100 µM (inactive) | > 100 µM (inactive) | > 100 µM (inactive) | > 100 µM (inactive)
6 | O=C1C=CC(=O)N1Nc1ccc([N+](=O)[O-])cc1[N+](=O)[O-] | 97.1 µM (inactive) | > 100 µM (inactive) | > 67.3 µM (inactive) | > 100 µM (inactive) | > 100 µM (inactive) | > 100 µM (inactive) | > 100 µM (inactive) | > 100 µM (inactive) | > 42.3 µM (inactive) | > 100 µM (inactive) | > 100 µM (inactive) | 14 µM (inactive) | 19.9 µM (inactive) | > 70.1 µM (inactive) | 25.8 µM (inactive)
7 | CC(C)CN(CC(C)C)C(=O)C1CCCC[C@@H]1C(=O)O (some centres not stated) | > 100 µM (inactive) | > 100 µM (inactive) | > 100 µM (inactive) | > 100 µM (inactive) | > 100 µM (inactive) | > 10 µM (inactive) | > 100 µM (inactive) | > 100 µM (inactive) | > 100 µM (inactive) | > 100 µM (inactive) | > 100 µM (inactive) | > 100 µM (inactive) | > 100 µM (inactive) | > 100 µM (inactive) | > 100 µM (inactive)
8 | CC(C(=O)Oc1ccc2ccccc2c1-c1c(O)ccc2ccccc12)c1ccccc1 (configuration not stated) | 10.1 µM (inactive) | 14.5 µM (inactive) | 15.2 µM (inactive) | 15.5 µM (inactive) | 15.1 µM (inactive) | 16.9 µM (inactive) | 18.8 µM (inactive) | 11.4 µM (inactive) | 10.9 µM (inactive) | 16.3 µM (inactive) | 13.7 µM (inactive) | 16.3 µM (inactive) | 13.2 µM (inactive) | 14.8 µM (inactive) | 13.2 µM (inactive)
9 | CC1=C[C@H]2C[C@@]3(C)O[C@@H]([C@]4(C)CC[C@H]([C@@H](C)C(=O)O)OO4)CC3C(C)(C)[C@H]2CC1 (some centres not stated) | 2.01 µM (inactive) | 1.04 µM (active) | 0.259 µM (active) | 2.22 µM (inactive) | 1.71 µM (inactive) | 3.16 µM (inactive) | 1.45 µM (inactive) | 0.397 µM (active) | 1.5 µM (inactive) | 1.94 µM (inactive) | – | – | 1.44 µM (inactive) | 3.15 µM (inactive) | 0.114 µM (active)
10 | NC(=S)N/N=C(/CC(=O)c1ccc([N+](=O)[O-])cc1)C(=O)Nc1ncc([N+](=O)[O-])s1 | > 100 µM (inactive) | > 100 µM (inactive) | > 100 µM (inactive) | > 100 µM (inactive) | > 100 µM (inactive) | > 100 µM (inactive) | > 100 µM (inactive) | > 100 µM (inactive) | > 100 µM (inactive) | – | > 100 µM (inactive) | 82.4 µM (inactive) | > 100 µM (inactive) | > 100 µM (inactive) | 45.2 µM (inactive)
11 | CC(=O)C1C(=O)NC(=O)C1=O (configuration not stated) | > 100 µM (inactive) | > 100 µM (inactive) | 29.2 µM (inactive) | > 100 µM (inactive) | > 100 µM (inactive) | > 100 µM (inactive) | > 100 µM (inactive) | > 100 µM (inactive) | > 100 µM (inactive) | > 100 µM (inactive) | > 100 µM (inactive) | – | > 100 µM (inactive) | > 100 µM (inactive) | –
12 | O=C(O)c1cc(=O)c2c([nH]c3ccccc32)s1 | – | > 100 µM (inactive) | > 100 µM (inactive) | > 100 µM (inactive) | > 100 µM (inactive) | > 100 µM (inactive) | > 100 µM (inactive) | > 100 µM (inactive) | > 100 µM (inactive) | – | > 100 µM (inactive) | > 100 µM (inactive) | > 100 µM (inactive) | > 100 µM (inactive) | > 100 µM (inactive)
13 | COC(=O)CC(=O)NCC1=CCC(=O)CC1 | – | > 100 µM (inactive) | > 100 µM (inactive) | > 100 µM (inactive) | > 100 µM (inactive) | – | > 100 µM (inactive) | > 100 µM (inactive) | > 100 µM (inactive) | > 100 µM (inactive) | > 100 µM (inactive) | > 100 µM (inactive) | > 100 µM (inactive) | > 100 µM (inactive) | > 100 µM (inactive)
14 | COc1ccc(/C=C(\Cl)c2ccc(OC)cc2)cc1 | > 100 µM (inactive) | > 100 µM (inactive) | > 100 µM (inactive) | > 100 µM (inactive) | – | > 100 µM (inactive) | > 100 µM (inactive) | > 100 µM (inactive) | > 100 µM (inactive) | > 100 µM (inactive) | > 100 µM (inactive) | > 100 µM (inactive) | > 100 µM (inactive) | > 100 µM (inactive) | > 100 µM (inactive)
